Test [1] has as its target T1, High affinity choline transporter 1 (Homo sapiens, UniProt Q9GZV3).
T1 sequence (Q9GZV3 whole entry): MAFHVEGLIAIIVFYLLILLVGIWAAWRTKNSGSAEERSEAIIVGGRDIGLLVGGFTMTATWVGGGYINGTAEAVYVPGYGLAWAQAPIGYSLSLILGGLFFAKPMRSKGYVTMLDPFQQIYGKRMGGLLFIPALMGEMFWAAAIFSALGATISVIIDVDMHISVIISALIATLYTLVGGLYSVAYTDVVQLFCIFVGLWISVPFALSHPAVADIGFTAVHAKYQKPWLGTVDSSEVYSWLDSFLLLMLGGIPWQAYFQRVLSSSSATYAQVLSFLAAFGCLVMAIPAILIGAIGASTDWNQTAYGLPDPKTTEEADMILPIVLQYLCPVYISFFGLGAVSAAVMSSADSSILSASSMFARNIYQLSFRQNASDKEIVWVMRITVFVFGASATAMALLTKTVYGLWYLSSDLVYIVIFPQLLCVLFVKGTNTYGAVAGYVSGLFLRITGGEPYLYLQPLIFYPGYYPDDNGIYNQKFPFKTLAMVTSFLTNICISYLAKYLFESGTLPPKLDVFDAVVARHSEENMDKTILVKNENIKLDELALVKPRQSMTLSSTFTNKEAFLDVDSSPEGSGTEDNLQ
Put plainly: CHT activators, dose response, cell-based, 10-point CRC, membrane potential dye (AID 602376). In kind it is functional.

For another test, the system named is CHO-K1. Put plainly: Counterscreen for antagonists of the orexin 1 receptor (OX1R; HCRTR1): Homogeneous time resolved fluorescence (HTRF)-based cell-based dose response assay to identify antagonists of the parental CHO-K1 cell line. [Related pubchem assays (depositor defined):AID434989, AID435008, AID463079, AID485270, AID492963, AID492964, AID492965, AID493232, AID504699, AID504701]. In kind it is functional. Conditions: Cricetulus griseus. On the technique in general: Counterscreens check selectivity or assay interference.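 Further: potency for inhibition of ATP-stimulated IP1 production as antagonists.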

Test [2] in a line: Counterscreen for antagonists of the orexin 1 receptor (OX1R; HCRTR1): Fluorescence-based cell-based high throughput dose response assay to identify antagonists of the parental CHO cell line. [Related pubchem assays (depositor defined):AID434989, AID435008, AID463079, AID485270, AID492963, AID492964, AID492965, AID493232, AID504699, AID504701]. In kind it is functional.
The target in another test is T2, Caspase-3 (Homo sapiens, UniProt P42574).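 Further: Dose-response selectivity test against caspase-3 for candidate inhibitors of sentrin-specific proteases (SENPs).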
T2 sequence (P42574 whole entry): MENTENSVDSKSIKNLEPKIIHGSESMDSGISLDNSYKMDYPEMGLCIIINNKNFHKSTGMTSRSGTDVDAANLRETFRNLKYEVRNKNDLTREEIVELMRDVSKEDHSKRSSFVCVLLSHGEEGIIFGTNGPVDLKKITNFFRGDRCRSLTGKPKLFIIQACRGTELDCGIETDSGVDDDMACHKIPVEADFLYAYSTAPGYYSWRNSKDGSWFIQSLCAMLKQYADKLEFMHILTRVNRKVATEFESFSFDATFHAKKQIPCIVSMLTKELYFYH
It counts as functional.

In test [3] the target is T3, Orexin/Hypocretin receptor type 1 (Homo sapiens, UniProt O43613). Put plainly: Homogeneous Time Resolved Fluorescence (HTRF)-based cell-based high throughput dose response assay for antagonists of the orexin 1 receptor (OX1R; HCRTR1). [Related pubchem assays (depositor defined):AID434989, AID435008, AID463079, AID485270, AID492963, AID492964, AID492965, AID493232, AID504717, AID504718]. It counts as functional.

For test [4], the target named is T4, Sentrin-specific protease 7 (Homo sapiens, UniProt Q9BQF6).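 Further: Luminescence-based dose-response confirmation of ultra-high-throughput screening hits, measuring inhibition of SENP7.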
T4 sequence (Q9BQF6 whole entry): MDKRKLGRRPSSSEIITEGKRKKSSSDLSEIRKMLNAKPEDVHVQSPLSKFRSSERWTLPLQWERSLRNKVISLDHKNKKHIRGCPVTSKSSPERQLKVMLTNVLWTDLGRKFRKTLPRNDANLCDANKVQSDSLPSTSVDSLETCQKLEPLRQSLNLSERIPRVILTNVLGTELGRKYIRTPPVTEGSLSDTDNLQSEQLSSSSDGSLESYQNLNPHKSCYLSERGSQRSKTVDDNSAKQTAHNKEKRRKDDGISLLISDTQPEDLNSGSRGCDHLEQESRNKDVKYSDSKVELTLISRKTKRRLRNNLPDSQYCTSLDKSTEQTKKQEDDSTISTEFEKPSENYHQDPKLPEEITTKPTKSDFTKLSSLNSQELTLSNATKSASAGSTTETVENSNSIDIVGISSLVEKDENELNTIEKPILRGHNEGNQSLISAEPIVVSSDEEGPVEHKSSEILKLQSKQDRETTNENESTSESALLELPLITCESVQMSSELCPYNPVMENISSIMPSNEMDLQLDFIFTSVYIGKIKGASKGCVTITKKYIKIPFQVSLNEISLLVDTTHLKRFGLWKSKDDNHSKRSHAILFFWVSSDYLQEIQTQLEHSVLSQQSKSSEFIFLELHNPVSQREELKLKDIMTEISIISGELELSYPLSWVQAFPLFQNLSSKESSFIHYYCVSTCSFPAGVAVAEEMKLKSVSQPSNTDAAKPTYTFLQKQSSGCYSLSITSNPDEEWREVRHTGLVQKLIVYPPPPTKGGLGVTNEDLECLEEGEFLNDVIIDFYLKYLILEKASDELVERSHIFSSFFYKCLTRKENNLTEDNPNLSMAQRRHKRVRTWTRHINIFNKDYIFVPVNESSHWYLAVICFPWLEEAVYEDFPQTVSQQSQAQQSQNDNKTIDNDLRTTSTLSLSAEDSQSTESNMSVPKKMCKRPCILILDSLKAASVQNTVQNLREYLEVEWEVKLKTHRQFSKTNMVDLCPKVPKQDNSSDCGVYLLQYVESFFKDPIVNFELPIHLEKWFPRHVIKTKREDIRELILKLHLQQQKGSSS
It counts as functional.

Test [5] has as its target T5, Sentrin-specific protease 6 (Homo sapiens, UniProt Q9GZR1).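 Further: Luminescence-based dose-response confirmatory assay of SENP6 inhibition, following up an ultra-high-throughput screen.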
T5 sequence (Q9GZR1 whole entry): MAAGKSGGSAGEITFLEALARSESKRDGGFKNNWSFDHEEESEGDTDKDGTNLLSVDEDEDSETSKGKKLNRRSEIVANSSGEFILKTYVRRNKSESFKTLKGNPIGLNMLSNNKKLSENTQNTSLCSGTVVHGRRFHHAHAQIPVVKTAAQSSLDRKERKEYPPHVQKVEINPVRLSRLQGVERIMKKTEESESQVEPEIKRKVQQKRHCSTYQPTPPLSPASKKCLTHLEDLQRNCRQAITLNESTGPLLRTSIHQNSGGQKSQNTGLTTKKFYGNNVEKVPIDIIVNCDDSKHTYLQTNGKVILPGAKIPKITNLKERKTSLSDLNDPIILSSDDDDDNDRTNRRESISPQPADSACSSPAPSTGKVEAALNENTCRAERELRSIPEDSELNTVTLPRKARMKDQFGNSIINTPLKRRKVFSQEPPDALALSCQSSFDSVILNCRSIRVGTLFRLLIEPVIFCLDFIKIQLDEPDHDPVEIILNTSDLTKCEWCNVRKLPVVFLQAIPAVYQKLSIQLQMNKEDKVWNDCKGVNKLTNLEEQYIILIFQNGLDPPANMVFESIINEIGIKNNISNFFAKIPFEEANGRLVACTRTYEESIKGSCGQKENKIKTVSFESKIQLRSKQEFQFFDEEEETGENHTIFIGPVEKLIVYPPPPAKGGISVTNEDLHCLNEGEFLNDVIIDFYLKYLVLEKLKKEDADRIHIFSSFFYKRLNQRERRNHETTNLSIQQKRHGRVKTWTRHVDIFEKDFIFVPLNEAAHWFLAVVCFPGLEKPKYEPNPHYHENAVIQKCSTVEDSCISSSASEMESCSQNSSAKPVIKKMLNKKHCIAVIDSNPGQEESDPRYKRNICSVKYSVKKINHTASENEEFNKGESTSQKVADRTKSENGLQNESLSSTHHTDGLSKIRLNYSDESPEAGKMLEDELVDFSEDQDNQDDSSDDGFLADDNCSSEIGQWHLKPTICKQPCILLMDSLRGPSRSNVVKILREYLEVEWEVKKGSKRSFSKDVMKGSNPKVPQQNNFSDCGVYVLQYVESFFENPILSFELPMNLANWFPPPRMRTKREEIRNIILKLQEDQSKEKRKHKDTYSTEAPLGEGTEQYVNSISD
It counts as functional.

Test [6] concerns the target T6, Sentrin-specific protease 8 (Homo sapiens, UniProt Q96LD8).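 Further: luminescence read-out of SENP8 inhibition, dose-response confirmation following an ultra-high-throughput screen.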
T6 sequence (Q96LD8 whole entry): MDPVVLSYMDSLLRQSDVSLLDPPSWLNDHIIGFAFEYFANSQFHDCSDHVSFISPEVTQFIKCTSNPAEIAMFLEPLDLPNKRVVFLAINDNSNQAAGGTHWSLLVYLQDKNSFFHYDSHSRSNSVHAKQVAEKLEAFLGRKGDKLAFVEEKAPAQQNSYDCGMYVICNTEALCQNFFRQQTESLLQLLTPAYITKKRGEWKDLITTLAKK
In kind it is functional.

Test [7] concerns the target T3, Orexin/Hypocretin receptor type 1. Put plainly: Fluorescence-based cell-based high throughput dose response assay for antagonists of the orexin 1 receptor (OX1R; HCRTR1). [Related pubchem assays (depositor defined):AID434989, AID435008, AID463079, AID485270, AID492963, AID492964, AID492965, AID493232, AID504717, AID504718]. It counts as functional.
The target of test [8] is T7, Orexin receptor type 2 (Homo sapiens, UniProt O43614). Put plainly: Counterscreen assay for antagonists of the orexin 1 receptor (OX1R; HCRTR1): Fluorescence-based cell-based dose response assay for antagonists of the orexin 2 receptor (OX2R; HCRTR2), run by assay provider. In kind it is functional.
Test [9] addresses T7, Orexin receptor type 2. Put plainly: Counterscreen assay for antagonists of the orexin 1 receptor (OX1R; HCRTR1): Homogeneous Time Resolved Fluorescence (HTRF)-based cell-based dose response assay for antagonists of the orexin 2 receptor (OX2R; HCRTR2), run by assay provider. It counts as functional.
A short description of test [10]: A cell-based HTS for delayed death inhibitors of the malarial parasite plastid Measured in Microorganism System Using Plate Reader - 2126-02_Inhibitor_Dose_DryPowder_Activity. In kind it is functional, organism-based.
Test [11] can be described thus: A cell-based HTS for delayed death inhibitors of the malarial parasite plastid Measured in Microorganism System Using Plate Reader - 2126-01_Inhibitor_Dose_DryPowder_Activity. In kind it is functional, organism-based.
A short description of test [12]: THP-1 cell cytotoxicity, dose response, cytotoxicity control, set 3 (AID 504852). It counts as functional. Conditions: Mycobacterium tuberculosis.

Activity calls are given as the source filed them.

T7 sequence (O43614 whole entry): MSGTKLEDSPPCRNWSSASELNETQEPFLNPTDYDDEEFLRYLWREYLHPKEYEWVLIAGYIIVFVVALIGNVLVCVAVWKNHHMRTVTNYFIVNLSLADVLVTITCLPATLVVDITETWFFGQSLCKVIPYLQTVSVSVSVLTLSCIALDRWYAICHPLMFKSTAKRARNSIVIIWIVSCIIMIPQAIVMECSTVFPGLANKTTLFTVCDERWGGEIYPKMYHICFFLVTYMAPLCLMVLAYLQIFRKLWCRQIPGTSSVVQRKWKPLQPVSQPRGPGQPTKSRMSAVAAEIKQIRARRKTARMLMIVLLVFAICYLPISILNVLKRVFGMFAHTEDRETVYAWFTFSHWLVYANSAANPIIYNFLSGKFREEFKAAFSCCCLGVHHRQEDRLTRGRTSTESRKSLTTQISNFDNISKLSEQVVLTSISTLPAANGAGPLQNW
T3 sequence (O43613 whole entry): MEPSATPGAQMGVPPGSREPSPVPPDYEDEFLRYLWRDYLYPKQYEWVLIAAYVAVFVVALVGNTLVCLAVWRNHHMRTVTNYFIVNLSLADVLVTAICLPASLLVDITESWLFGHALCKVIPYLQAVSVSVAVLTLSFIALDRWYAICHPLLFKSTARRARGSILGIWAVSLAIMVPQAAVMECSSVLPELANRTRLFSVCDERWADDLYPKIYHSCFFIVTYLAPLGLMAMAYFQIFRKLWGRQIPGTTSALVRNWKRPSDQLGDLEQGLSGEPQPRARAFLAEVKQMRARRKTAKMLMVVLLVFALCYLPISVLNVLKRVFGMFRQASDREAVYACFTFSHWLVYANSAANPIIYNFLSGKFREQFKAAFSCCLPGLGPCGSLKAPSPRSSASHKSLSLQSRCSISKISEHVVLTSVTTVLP

As for `CN(CC(=O)Nc1ccc(F)c(F)c1F)C(=O)c1cc(-c2ccncc2)nc2ccccc12`, in test [1], the EC50 (commonly the concentration giving half of the maximal effect) is 14.6 µM (active).

Take `COc1ccc(/C=C/c2n[nH]c(-c3ccccc3O)n2)cc1OC`: the IC50 (usually the concentration at which inhibition is half-maximal) is > 66.2 µM (inactive) in the test with CHO-K1; > 49.8 µM (inactive) in [2]; 58.8 µM (active) on Caspase-3; 2.51 µM (active) in test [3]; 4.7 µM (active) in test [4]; 13.6 µM (active) in test [5]. In addition, the IC50 in test [6] is 12.7 µM (active); in [7], 3.21 µM (active); on Orexin receptor type 2 [8], > 88.8 µM (inactive); on Orexin receptor type 2 [9], > 50 µM (inactive).

For the compound `CC(C)NC(=O)Nc1ccc2c(c1)C(=O)N([C@@H](C)CO)C[C@@H](C)[C@H](CN(C)S(=O)(=O)c1ccc(F)cc1)OCCCC[C@H](C)O2`, the results for the AC50 in test [10] and in test [11] were 0.765 µM (active) and 0.71 µM (active), respectively.

Turning to `CCC(Sc1nc2ccccc2c(=O)[nH]1)C(=O)NC1CCCCC1` (centres undefined), the CC50 – broadly, the concentration giving 50% cytotoxicity – in [12] was > 100 µM (active).

The values above are taken from ChEMBL document CHEMBL1201862, “PubChem BioAssay data set” (2004).
